From patent US7491794B2, “Macrocyclic compounds as inhibitors of viral replication” (Intermune, Inc., priority 2003, dated 2009)

Tests used:
NS3-NS4A protease = target: T1, NS3-NS4A protease (Hepatitis C virus genotype 1a, UniProt P27958); assay: NS3-NS4A protease assay (NS3 inhibition assay, RETS1 substrate), Section B; type: biochemical; conditions: read-out: NS3-NS4A IC50
T1 construct: Recombinant E. coli or Baculovirus full-length NS3 was diluted to 3.33 μM with assay buffer; made in house; host or cells: E. coli or baculovirus (BV) system
How it was run: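 Kinetic fluorescence read (335 nm excitation, 495 nm emission, 30 min) of RETS1 cleavage by NS3/NS4A-2 complex, 2 nM E. coli or 3 nM baculovirus NS3, after 10 min room-temperature compound pre-incubation. Four-parameter-fit IC50s converted to Ki by Cheng–Prusoff, Ki=IC50/(1+[S]/Km).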

[1] = test system: HCV sub-genomic replicon, GS4.3; assay: Quantitation by ELISA of NPTII in the HCV sub-genomic replicon, GS4.3, Section B; type: cell-based; conditions: Hepatitis C virus; GS4.3 cells, 72 h incubation; read-out: Replicon EC50
How it was run: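 NPTII marker protein in lysates was quantified by ELISA read at 450 nm after 72 h inhibitor exposure (3-fold series, final DMSO 1%, G418-free medium) of HuH-7 cells stably harbouring the subgenomic HCV replicon. Values relative to DMSO-treated controls; 4-parameter curves gave EC50.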

T1 sequence (P27958 1027-1657): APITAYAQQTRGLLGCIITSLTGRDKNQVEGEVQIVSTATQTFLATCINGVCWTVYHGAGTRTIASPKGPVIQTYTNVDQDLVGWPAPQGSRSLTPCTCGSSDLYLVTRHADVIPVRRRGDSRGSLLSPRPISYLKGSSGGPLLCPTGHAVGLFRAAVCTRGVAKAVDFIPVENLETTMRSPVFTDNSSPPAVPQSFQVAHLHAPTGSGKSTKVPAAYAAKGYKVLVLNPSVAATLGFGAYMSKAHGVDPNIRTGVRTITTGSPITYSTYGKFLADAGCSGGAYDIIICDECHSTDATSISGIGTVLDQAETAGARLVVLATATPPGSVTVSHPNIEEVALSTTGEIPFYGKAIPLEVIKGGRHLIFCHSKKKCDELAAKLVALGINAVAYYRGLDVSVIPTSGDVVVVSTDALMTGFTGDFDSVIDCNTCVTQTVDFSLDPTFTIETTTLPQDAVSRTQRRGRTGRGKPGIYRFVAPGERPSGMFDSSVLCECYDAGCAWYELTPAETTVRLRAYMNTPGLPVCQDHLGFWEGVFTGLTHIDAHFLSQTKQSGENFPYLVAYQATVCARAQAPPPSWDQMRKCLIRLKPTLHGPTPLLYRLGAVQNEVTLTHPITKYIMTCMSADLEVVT

SMILES | IC50 (NS3-NS4A protease) [nM] | EC50 [1] [nM]
O=C(N[C@H]1CCCCC/C=C\[C@@H]2C[C@@]2(C(=O)NS(=O)(=O)C2CC2)NC(=O)[C@@H]2C[C@@H](OC(=O)N3CCc4ccccc4C3)CN2C1=O)O[C@H]1CCOC1 [AR00304162, (1S,4R,6S,14S,18R)-3,4-Dihydro-1H-isoquinoline-2-carboxylic acid 4-cyclopropanesulfonylaminocarbonyl-2,15-dioxo-14-(tetrahydro-furan-3-yloxycarbonylamino)-3,16-diaza-tricyclo[14.3.0.0^4,6]nonadec-7-en-18-yl ester] | < 100 | < 100
O=C(N[C@H]1CCCCC/C=C\[C@@H]2C[C@@]2(C(=O)NS(=O)(=O)C2CC2)NC(=O)[C@@H]2C[C@@H](OC(=O)N3CCc4ccccc4C3)CN2C1=O)O[C@@H]1CCOC1 [AR00304163, (1S,4R,6S,14S,18R)-3,4-Dihydro-1H-isoquinoline-2-carboxylic acid 4-cyclopropanesulfonylaminocarbonyl-2,15-dioxo-14-(tetrahydro-furan-3R-yloxycarbonylamino)-3,16-diaza-tricyclo[14.3.0.0^4,6]nonadec-7-en-18-yl ester] | < 100 | < 100
CC(C)(C)OC(=O)N[C@H]1CCCCC/C=C\[C@@H]2C[C@@]2(C(=O)NS(=O)(=O)C2CC2)NC(=O)[C@@H]2C[C@@H](OC(=O)N3CCc4nc(Nc5ccccc5)sc4C3)CN2C1=O [AR00311814, (1S,4R,6S,14S,18R)-2-Phenylamino-6,7-dihydro-4H-thiazolo[5,4-c]pyridine-5-carboxylic acid 14-tert-butoxycarbonylamino-4-cyclopropanesulfonylaminocarbonyl-2,15-dioxo-3,16-diaza-tricyclo[14.3.0.0^4,6]nonadec-7-en-18-yl ester] | < 100 | < 10000
CC(C)(C)OC(=O)N[C@H]1CCCCC/C=C\[C@@H]2C[C@@]2(C(=O)NS(=O)(=O)C2CC2)NC(=O)[C@@H]2C[C@@H](OC(=O)N3CCc4ccccc4C3CN3CCCCC3)CN2C1=O (stereo partly drawn) [AR00311815, (1S,4R,6S,14S,18R)-1-Piperidin-1-ylmethyl-3,4-dihydro-1H-isoquinoline-2-carboxylic acid 14-tert-butoxycarbonylamino-4-cyclopropanesulfonylaminocarbonyl-2,15-dioxo-3,16-diaza-tricyclo[14.3.0.0^4,6]nonadec-7-en-18-yl ester] | < 100 | < 1000
CC(C)(C)OC(=O)N[C@H]1CCCCC/C=C\[C@@H]2C[C@@]2(C(=O)NS(=O)(=O)C2CC2)NC(=O)[C@@H]2C[C@@H](OC(=O)N3Cc4ccccc4C4(CCC4)C3)CN2C1=O [AR00312024, (1S,4R,6S,14S,18R)-4,4-Spirocyclobutyl-3,4-dihydro-1H-isoquinoline-2-carboxylic acid 14-tert-butoxycarbonylamino-4-cyclopropanesulfonylaminocarbonyl-2,15-dioxo-3,16-diaza-tricyclo[14.3.0.0^4,6]nonadec-7-en-18-yl ester] | < 100 | < 100
CC(C)(C)OC(=O)N[C@H]1CCCCCC=C[C@@H]2C[C@@]2(C(=O)NS(=O)(=O)C2CC2)NC(=O)[C@@H]2C[C@@H](OC(=O)N3Cc4ccccc4C(C)(C)C3)CN2C1=O [AR00312025, (1S,4R,6S,14S,18R)-4,4-Dimethyl-3,4-dihydro-1H-isoquinoline-2-carboxylic acid 14-tert-butoxycarbonylamino-4-cyclopropanesulfonylaminocarbonyl-2,15-dioxo-3,16-diaza-tricyclo[14.3.0.0^4,6]nonadec-7-en-18-yl ester] | < 100 | < 100
CC1CN(C(=O)O[C@@H]2C[C@H]3C(=O)N[C@]4(C(=O)NS(=O)(=O)C5CC5)C[C@H]4/C=C\CCCCC[C@H](NC(=O)OC(C)(C)C)C(=O)N3C2)Cc2ccccc21 (stereo partly drawn) [AR00312026, (1S,4R,6S,14S,18R)-4-Methyl-3,4-dihydro-1H-isoquinoline-2-carboxylic acid 14-tert-butoxycarbonylamino-4-cyclopropanesulfonylaminocarbonyl-2,15-dioxo-3,16-diaza-tricyclo[14.3.0.0^4,6]nonadec-7-en-18-yl ester] | < 100 | < 100
O=C(N[C@H]1CCCCC/C=C\[C@@H]2C[C@@]2(C(=O)NS(=O)(=O)C2CC2)NC(=O)[C@@H]2C[C@@H](OC(=O)N3Cc4ccccc4C4(CCC4)C3)CN2C1=O)O[C@@H]1CCOC1 [AR00314635, (1S,4R,6S,14S,18R)-4,4-Spirocyclobutyl-3,4-dihydro-1H-isoquinoline-2-carboxylic acid 4-cyclopropanesulfonylaminocarbonyl-2,15-dioxo-14-(tetrahydro-furan-3-yloxycarbonylamino)-3,16-diaza-tricyclo[14.3.0.0^4,6]nonadec-7-en-18-yl ester] | < 100 | < 100
CC1(C)CN(C(=O)O[C@@H]2C[C@H]3C(=O)N[C@]4(C(=O)NS(=O)(=O)C5CC5)C[C@H]4/C=C\CCCCC[C@H](NC(=O)O[C@H]4CCOC4)C(=O)N3C2)Cc2ccccc21 [AR00314654, (1S,4R,6S,14S,18R)-4,4-Dimethyl-3,4-dihydro-1H-isoquinoline-2-carboxylic acid 4-cyclopropanesulfonylaminocarbonyl-2,15-dioxo-14-(tetrahydro-furan-3S-yloxycarbonylamino)-3,16-diaza-tricyclo[14.3.0.0^4,6]nonadec-7-en-18-yl ester] | < 100 | < 100
CC1CN(C(=O)O[C@@H]2C[C@H]3C(=O)N[C@]4(C(=O)NS(=O)(=O)C5CC5)C[C@H]4/C=C\CCCCC[C@H](NC(=O)NC(C)(C)C)C(=O)N3C2)Cc2ccccc21 (stereo partly drawn) [AR00314656, (1S,4R,6S,14S,18R)-4-Methyl-3,4-dihydro-1H-isoquinoline-2-carboxylic acid 14-(3-tert-butyl-ureido)-4-cyclopropanesulfonylaminocarbonyl-2,15-dioxo-3,16-diaza-tricyclo[14.3.0.0^4,6]nonadec-7-en-18-yl ester] | < 100 | < 100
CN(C)c1cccc2c1CCN(C(=O)O[C@@H]1C[C@H]3C(=O)N[C@]4(C(=O)O)C[C@H]4/C=C\CCCCC[C@H](NC(=O)OC(C)(C)C)C(=O)N3C1)C2 [AR00315997, (1S,4R,6S,14S,18R)-14-tert-Butoxycarbonylamino-18-(5-dimethylamino-3,4-dihydro-1H-isoquinoline-2-carbonyloxy)-2,15-dioxo-3,16-diaza-tricyclo[14.3.0.0^4,6]nonadec-7-ene-4-carboxylic acid] | < 1000 | < 10000
CC(C)(C)OC(=O)N[C@H]1CCCCC/C=C\[C@@H]2C[C@@]2(C(=O)O)NC(=O)[C@@H]2C[C@@H](OC(=O)N3Cc4ccc(Cl)cc4C3)CN2C1=O [AR00315998, (1S,4R,6S,14S,18R)-14-tert-Butoxycarbonylamino-18-(5-chloro-1,3-dihydro-isoindole-2-carbonyloxy)-2,15-dioxo-3,16-diaza-tricyclo[14.3.0.0^4,6]nonadec-7-ene-4-carboxylic acid] | < 1000 | < 10000
CC(C)(C)OC(=O)N[C@H]1CCCCC/C=C\[C@@H]2C[C@@]2(C(=O)O)NC(=O)[C@@H]2C[C@@H](OC(=O)N3Cc4cc(Cl)c(Cl)cc4C3)CN2C1=O [AR00315999, (1S,4R,6S,14S,18R)-14-tert-Butoxycarbonylamino-18-(5,6-dichloro-1,3-dihydro-isoindole-2-carbonyloxy)-2,15-dioxo-3,16-diaza-tricyclo[14.3.0.0^4,6]nonadec-7-ene-4-carboxylic acid] | < 1000 | < 10000
CC(C)(C)NC(=O)N[C@H]1CCCCC/C=C\[C@@H]2C[C@@]2(C(=O)NS(=O)(=O)C2CC2)NC(=O)[C@@H]2C[C@@H](OC(=O)N3CCc4ccccc4C3)CN2C1=O [AR00320001, (1S,4R,6S,14S,18R)-3,4-Dihydro-1H-isoquinoline-2-carboxylic acid 14-(3-tert-butyl-ureido)-4-cyclopropanesulfonylaminocarbonyl-2,15-dioxo-3,16-diaza-tricyclo[14.3.0.0^4,6]nonadec-7-en-18-yl ester] | < 100 | < 100
O=C(N[C@H]1CCCCC/C=C\[C@@H]2C[C@@]2(C(=O)O)NC(=O)[C@@H]2C[C@@H](OC(=O)N3CCc4ccccc4C3)CN2C1=O)OC1CCOCC1 [AR00320002, (1S,4R,6S,14S,18R)-18-(3,4-Dihydro-1H-isoquinoline-2-carbonyloxy)-2,15-dioxo-14-(tetrahydro-pyran-4-yloxycarbonylamino)-3,16-diaza-tricyclo[14.3.0.0^4,6]nonadec-7-ene-4-carboxylic acid] | < 1000 | < 10000
O=C(N[C@H]1CCCCC/C=C\[C@@H]2C[C@@]2(C(=O)NS(=O)(=O)C2CC2)NC(=O)[C@@H]2C[C@@H](OC(=O)N3Cc4ccccc4C3)CN2C1=O)OCCF [AR00320073, (1S,4R,6S,14S,18R)-1,3-Dihydro-isoindole-2-carboxylic acid 4-cyclopropanesulfonylaminocarbonyl-14-(2-fluoro-ethoxycarbonylamino)-2,15-dioxo-3,16-diaza-tricyclo[14.3.0.0^4,6]nonadec-7-en-18-yl ester] | < 100 | < 100
O=C(N[C@H]1CCCCC/C=C\[C@@H]2C[C@@]2(C(=O)O)NC(=O)[C@@H]2C[C@@H](OC(=O)N3Cc4ccccc4C3)CN2C1=O)O[C@@H]1CCOC1 [AR00320074, (1S,4R,6S,14S,18R)-18-(1,3-Dihydro-isoindole-2-carbonyloxy)-2,15-dioxo-14-(tetrahydro-furan-3R-yloxycarbonylamino)-3,16-diaza-tricyclo[14.3.0.0^4,6]nonadec-7-ene-4-carboxylic acid] | < 100 | < 10000
